Source: patent US10610520B2, “Heterocyclic compound” (Takeda Pharmaceutical Company Limited, priority 2016, dated 2020)

Molecular target: T1, His-hMAGL (recombinant polyhistidine tagged human MAGL protein) (Homo sapiens, UniProt Q99685)
T1 construct: made in house; host or cells: E. coli BL21(DE3)
T1 sequence (Q99685 1-303): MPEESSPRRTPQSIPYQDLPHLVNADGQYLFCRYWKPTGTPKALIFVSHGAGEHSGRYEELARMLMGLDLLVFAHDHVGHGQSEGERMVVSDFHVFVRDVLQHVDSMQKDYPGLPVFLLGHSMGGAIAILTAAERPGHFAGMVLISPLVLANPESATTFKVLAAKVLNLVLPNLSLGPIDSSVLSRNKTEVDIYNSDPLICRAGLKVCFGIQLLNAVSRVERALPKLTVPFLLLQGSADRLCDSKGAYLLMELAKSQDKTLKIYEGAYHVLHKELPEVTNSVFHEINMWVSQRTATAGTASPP
Assay: Measurement of MAGL inhibitory activity (arachidonic acid production from 2-arachidonylglycerol, RapidFire-mass spectrometry)
Assay type: biochemical
Conditions: MAGL inhibitory rate, test compound 10 μM, 60 min preincubation, 2-arachidonylglycerol substrate
Procedure: The His-hMAGL obtained above was diluted with enzyme reaction buffer (10 mM Tris-HCl, pH 7.5, 1 mM EDTA, 0.025 (w/v) % Triton X-100, 0.01% Bovine serum albumin) to a concentration of 7.5 ng/mL. […] Thereafter, to each well was added 5 μL of 150 μM 2-arachidonylglycerol (Tocris Bioscience), and the mixture was incubated at room temperature for 10 min. Then, 10 μL of 2% formic acid (Wako Pure Chemical Industries, Ltd.) was added to stop the reaction. Furthermore, acetonitrile (50 μL) containing 3 μM arachidonic acid-d8 (Cayman Chemical Company) was added and the mixture was stirred.
The amount of arachidonic acid in the obtained enzyme reaction mixture was calculated by measuring by RapidFire-mass spectrometry and correcting by the amount of arachidonic acid-d8. High Throughput online solid phase extraction was performed using RapidFire 300™ system (Agilent Technologies, Inc.). Samples were loaded on SPE C4 cartridge (Agilent Technologies, Inc.) and desalted with 0.2 (v/v) % acetic acid (Wako Pure Chemical Industries, Ltd.) in ultrapure water/acetonitrile (70/30, v/v) at a flow rate of 1.5 mL/min, eluted at a flow rate of 0.5 mL/min with 0.2 (v/v) % acetic acid dissolved in acetonitrile/ultrapure water (90/10, v/v), and injected into the mass spectrometry part. The injection needle was washed with ultrapure water (500 millisecond) and acetonitrile (500 millisecond) to minimize carry-over. […] The RapidFire300 system was controlled by RapidFire UI software version 3.6 (Agilent Technologies, Inc.).
The mass spectrometry of the resultant product was performed using API4000™ triple quadrupole mass spectrometer (AB SCIEX) equipped with an electrospray ion sauce (TurboIon Spray™) in a negative selected reaction monitoring (SRM) mode. The conditions of SRM are shown below. The parameters of the instrument were optimized as follows: capillary temperature 600° C., ion spray voltage −4.5 kV, collision gas 8, curtain gas 15 psi, ion source gas 1 60 psi, ion source gas 2 60 psi. The mass spectrometer was controlled by Analyst™ software version 1.5.1 (AB SCIEX). The peak area integration was analyzed using RapidFire integrator software version 3.6 (Agilent Technologies, Inc.).
MAGL inhibitory rate (%) was calculated according to the following calculation formula. (1-(arachidonic acid production amount of test compound addition group−arachidonic acid production amount of enzyme-free group)÷(arachidonic acid production amount of test compound-free group−arachidonic acid production amount of enzyme-free group))×100

Row | Compound | inhibition at 10 µM
1 | O=C1COCC2(CN(C(=O)N3CCC(COc4ccc(F)cc4Cl)CC3)C2)N1 [Example 243, 2-((4-((2-chloro-4-fluorophenoxy)methyl)piperidin-1-yl)carbonyl)-8-oxa-2,5-diazaspiro[3.5]nonan-6-one] | 100%
2 | COc1ccc(-c2ccc(C(=O)N3CC4(CCC(=O)N4)C3)cc2)c(Cl)c1 [Example 85, 2-((2′-chloro-4′-methoxybiphenyl-4-yl)carbonyl)-2,5-diazaspiro[3.4]octan-6-one] | 94%
3 | O=C1CCC2(CN(C(=O)c3sc(-c4ccc(OC(F)(F)F)cc4)cc3Cl)C2)N1 [Example 249, 2-((3-chloro-5-(4-(trifluoromethoxy)phenyl)-2-thienyl)carbonyl)-2,5-diazaspiro[3.4]octan-6-one] | 93%
4 | O=C1NC2(CCN(C(=O)N3CCC(COc4ccc(F)cc4Cl)CC3)C2)CO1 (centres unmarked) [Example 322, 7-((4-((2-chloro-4-fluorophenoxy)methyl)piperidin-1-yl)carbonyl)-3-oxa-1,7-diazaspiro[4.4]nonan-2-one] | 100%
5 | O=C1CCC2(CN(C(=O)c3ccc(-c4ccccc4OC(F)(F)F)cc3)C2)N1 [Example 62, 2-((2′-(trifluoromethoxy)biphenyl-4-yl)carbonyl)-2,5-diazaspiro[3.4]octan-6-one] | 95%
6 | COC(=O)c1ccc(-c2ccc(CC3CCN(C(=O)N4CC5(CCC(=O)N5)C4)CC3)cc2)cc1 [Example 109, methyl 4′-((1-((6-oxo-2,5-diazaspiro[3.4]oct-2-yl)carbonyl)piperidin-4-yl)methyl)biphenyl-4-carboxylate] | 98%
7 | CC(C)c1ccc(-c2ccc3c(Cl)c(C(=O)N4CC5(CCC(=O)N5)C4)sc3c2)cc1 [Example 187, 2-((3-chloro-6-(4-isopropylphenyl)-1-benzothiophen-2-yl)carbonyl)-2,5-diazaspiro[3.4]octan-6-one] | 94%
8 | O=C1CCC2(CN(C(=O)c3sc4cc(-c5ccc(F)cc5Cl)ccc4c3Cl)C2)N1 [Example 224, 2-((3-chloro-6-(2-chloro-4-fluorophenyl)-1-benzothiophen-2-yl)carbonyl)-2,5-diazaspiro[3.4]octan-6-one] | 100%

Further lines, results first:

Row | inhibition at 10 µM | Compound
9 | 101% | Cc1cc(OC(F)(F)F)cc2sc(C(=O)N3CC4(COC(=O)N4)C3)c(Cl)c12 [Example 296, 2-((3-chloro-4-methyl-6-(trifluoromethoxy)-1-benzothiophen-2-yl)carbonyl)-7-oxa-2,5-diazaspiro[3.4]octan-6-one]
10 | 99% | Cc1cc(F)c(F)c2sc(C(=O)N3CCC4(COC(=O)N4)C3)c(Cl)c12 (centres unmarked) [Example 328, 7-((3-chloro-6,7-difluoro-4-methyl-1-benzothiophen-2-yl)carbonyl)-3-oxa-1,7-diazaspiro[4.4]nonan-2-one]
11 | 101% | O=C1NC2(CO1)CN(C(=O)c1sc3cccc(Cl)c3c1Cl)C2 [Example 289, 2-((3,4-dichloro-1-benzothiophen-2-yl)carbonyl)-7-oxa-2,5-diazaspiro[3.4]octan-6-one]
12 | 99% | O=C1CCC2(CN(C(=O)c3sc4cc(-c5ccc(F)cc5)ccc4c3Cl)C2)N1 [Example 36, 2-((3-chloro-6-(4-fluorophenyl)-1-benzothiophen-2-yl)carbonyl)-2,5-diazaspiro[3.4]octan-6-one]
13 | 100% | O=C1NC2(CCN(C(=O)c3sc4cc(C(F)(F)F)ccc4c3Cl)C2)CO1 (centres unmarked) [Example 365, 7-((3-chloro-6-(trifluoromethyl)-1-benzothiophen-2-yl)carbonyl)-3-oxa-1,7-diazaspiro[4.4]nonan-2-one]
14 | 99% | O=C1CCC2(CN(C(=O)c3sc4cc(OC(F)(F)F)ccc4c3Cl)C2)N1 [Example 176, 2-((3-chloro-6-(trifluoromethoxy)-1-benzothiophen-2-yl)carbonyl)-2,5-diazaspiro[3.4]octan-6-one]
